BindingDB's records for doi:10.7270/Q2P26WJQ (The Scripps Research Institute Molecular Screening Center, 2009)
pIC50: −log10 of the molar value.

The compounds below were run against Transitional endoplasmic reticulum ATPase (Homo sapiens, UniProt P55072) (assay: p97 ATPase inhibitors, dose response, biochemical (AID 1534)).
Transitional endoplasmic reticulum ATPase, sequence (P55072 whole entry): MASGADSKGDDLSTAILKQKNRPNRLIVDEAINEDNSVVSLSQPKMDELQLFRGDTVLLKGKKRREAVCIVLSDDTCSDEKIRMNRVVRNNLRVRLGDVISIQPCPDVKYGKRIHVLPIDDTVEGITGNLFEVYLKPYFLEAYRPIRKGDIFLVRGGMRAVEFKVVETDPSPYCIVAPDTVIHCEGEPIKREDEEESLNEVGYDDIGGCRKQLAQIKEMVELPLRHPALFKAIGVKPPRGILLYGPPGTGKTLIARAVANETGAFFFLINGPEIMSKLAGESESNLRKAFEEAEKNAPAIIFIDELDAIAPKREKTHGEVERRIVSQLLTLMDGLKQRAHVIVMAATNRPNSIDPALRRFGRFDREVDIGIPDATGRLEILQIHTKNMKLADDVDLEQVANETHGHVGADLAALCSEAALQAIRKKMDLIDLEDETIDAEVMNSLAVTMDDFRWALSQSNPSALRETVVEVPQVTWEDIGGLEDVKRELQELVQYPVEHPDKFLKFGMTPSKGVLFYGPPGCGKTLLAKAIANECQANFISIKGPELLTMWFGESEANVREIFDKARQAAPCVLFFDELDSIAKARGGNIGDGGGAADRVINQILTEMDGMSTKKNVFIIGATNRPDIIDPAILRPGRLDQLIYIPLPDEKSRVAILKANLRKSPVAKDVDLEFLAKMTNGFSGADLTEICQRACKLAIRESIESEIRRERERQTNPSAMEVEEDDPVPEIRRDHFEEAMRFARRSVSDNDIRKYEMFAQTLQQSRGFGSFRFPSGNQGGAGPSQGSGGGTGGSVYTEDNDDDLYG

On1[o+]nc2c1CCc1nc(-c3ccccc3)[n-]c1-2 [3-oxidanidyl-7-phenyl-4,5-dihydro-1H-imidazo[4,5-g][2,1,3]benzoxadiazol-3-ium] and COc1ccc(CN=Nc2nnc(-c3ccccc3)c(=O)[nH]2)cc1 [4-methoxybenzaldehyde (5-oxo-6-phenyl-4,5-dihydro-1,2,4-triazin-3-yl)hydrazone] cannot be ordered by pIC50: less than 4.30 for the first, less than 4.30 for the second.

Compared with NS(=O)(=O)c1ccc(N=NCc2ccc(O)c(O)c2O)c([N+](=O)[O-])c1 [4-[[(E)-(2,3-dihydroxy-4-oxo-1-cyclohexa-2,5-dienylidene)methyl]hydrazo]-3-nitrobenzenesulfonamide], Oc1ccc(CN=Nc2ccnc3cc(Cl)ccc23)cc1O [(4Z)-4-[[2-(7-chloroquinolin-4-yl)hydrazinyl]methylidene]-2-hydroxycyclohexa-2,5-dien-1-one] is higher in pIC50: less than 4.30 for the first, 4.44 for the second.

CN(C)[C@@H]1C(=O)C(C(N)=O)C(=O)[C@@]2(O)C(=O)C3C(=O)c4c(O)cccc4[C@@](C)(O)[C@H]3[C@H](O)[C@@H]12 (stereo partly drawn) [(2E,4S,4aR,5S,5aR,6S,12aS)-2-[azanyl(oxidanyl)methylidene]-4-(dimethylamino)-6-methyl-5,6,10,11,12a-pentakis(oxidanyl)-4,4a,5,5a-tetrahydrotetracene-1,3,12-trione] and Cc1ccc(C)c(SCC(=O)OCC(=O)C(C#N)c2nc3ccccc3[nH]2)c1 (configuration not stated) [MLS000392255] cannot be ordered by pIC50: less than 4.30 for the first, less than 4.30 for the second.

With Cc1ccc(SCC(=O)C(C#N)c2nc3ccccc3s2)cc1 (configuration not stated) [(2Z)-2-(3H-1,3-benzothiazol-2-ylidene)-3-keto-4-(p-tolylthio)butyronitrile] the pIC50 was less than 4.30.
